Reference: patent publication US12589099B2 (priority 2021, dated 2026)

Tests used:
[1] = test system: moderate traumatic brain injury (TBI) induced by controlled cortical impact (CCI); experiment: Right forelimb adhesive removal test after TBI; format: in vivo, male Wistar rats
Procedure: FIG. 2: The figure illustrates functional tests that are carried out on healthy (sham surgery) no treatment, vehicle treated and ALPHA-1062 treated rats to assess sensorimotor and cognitive function after TBI. Sensimotor function tests. a) The figure depicts tests to assess the modified neurological severity score (mNSS). […] The animal is required to balance over a grid and the frequency of steps missing the grid are counted. This test assesses the functionality of the injured parietal cortex of the rat's brain. c) The adhesive removal test consists of applying adhesive tape on each forepaw of the animal and measuring the time-to-contact and the time-to-remove them. This behavior requires correct paw and mouth sensitivity (time-to-contact) and correct dexterity (time-to-remove). Cognitive function tests: a) This picture illustrates the Morris water maze that comprises that a rat is placed in a large circular pool (picture on the left) and is required to find an invisible platform that allows it to escape the water by using various visuo-spatial cues. This test is used to study spatial learning and memory and assesses hippocampal and select cortical brain region function. Usually, the path of the rat through the pool is tracked (picture on the right) and the time spend in the proximity of the platform as well as the time needed until the platform is found by the rat are measured. b) For the new/novel object recognition (NOR) test, after a habituation time in the test space (picture on far left) rats are given the opportunity to explore two identical objects (A) for a predetermined period of time (picture in the middle). After a delay, the animals are then presented with two objects to explore, one of which is the same as in the first exploration trial (A), the other a new object (B) (picture on the right). Depending on the length of the delay between the two trials or depending on the extend of cortical damage, the rats will either explore the novel object for a greater time period, indicating memory for the familiar object, or will explore the novel and familiar objects for the same amount of time, indicating a lack of recall or loss of memory for the familiar object presented during the initial trial.
Young adult (2-3 months) male Wistar rats were subjected to a moderate traumatic brain injury (TBI) induced by controlled cortical impact (CCI). […]
In the adhesive removal test, an adhesive tape is applied to the right forepaw of an animal. Both the time-to-contact the adhesive (sensory perception), as well as the time-to-remove the adhesive (locomotor skill) are assessed by this test.

[2] = test system: pathological p-Tau (AT8); experiment: p-Tau (AT8) immunostaining 35 days post-TBI; format: in vivo, male Wistar rats; details: 4.5 mg/kg IN twice daily, cortex, DG, CA3, CA1 of ipsilateral hemisphere
Source text: Young adult (2-3 months) male Wistar rats were subjected to a moderate traumatic brain injury (TBI) induced by controlled cortical impact (CCI). Animal models of TBI including the CCI model and functional tests have been described in detail in peer reviewed publications (Xiong et al., 2013, Nat Rev Neurosci.; Zhang et al., 2016, J Neurosurg.; Zhang et al., 2016, Neurochem Int.; Zhang et al., 2021, J Neurotrauma). Injury consisted of a single impact at 4.0 m/sec, 2.5 mm deformation to the left parietal cortex. In addition, a group of animals was left healthy/not injured to serve as a healthy control.
The substance used in this study was ALPHA-1062 at 4.5 mg/kg. […]
Histological assessment was performed including quantitative image analysis protocols; followed by statistical analysis of the data. […]
For cell counting and quantitation NeuN+ cells were examined in the ipsilateral cortex, DG, CA1, and CA3 regions of the ipsilateral hippocampus. […] The number of BrdU+ cells (red-fluorophore) and NeuN (green-fluorophore)/BrdU-colabeled cells (yellow after merge) were counted. […] The immune-positive cells were determined and divided by the measured areas and presented as numbers per square mm. […] Tau or p-Tau immunoreactive areas including cortex, dentate gyrus, CA3 and CA1 regions of the ipsilateral hemisphere were imaged and quantified by Image J software (NIH).

COc1ccc2c3c1O[C@H]1C[C@@H](OC(=O)c4ccccc4)C=C[C@@]31CCN(C)C2 [ALPHA-1062, (4aS,6R,8aS)-5,6,9,10,11,12-hexahydro-3-methoxy-11-methyl-4aH-[1]benzofuro[3a,3,2-ef][2]benzazepin-6-ol benzoate]
adhesive removal (right forelimb) compared to vehicle ([1]; 4.5 mg/kg IN twice daily, from day 7 (D7) on (FIG. 6)): significantly better | adhesive removal (right forelimb) compared to uninjured (sham) animals ([1]; 4.5 mg/kg IN twice daily, starting on day 7 (D7), remainder of study): as well as the uninjured (sham) animals | Adhesive Removal, performance over SHAM ([1]; rats after TBI, compared to healthy sham animals): equivalent to | Adhesive Removal, performance over VEHICLE ([1]; rats after TBI, compared to vehicle treatment): superior | levels of p-Tau compared to vehicle controls [2]: significantly reduced levels of p-Tau
